Converted amounts (≈) assume the structure as drawn. Values belong to the compound of their own block, whether it stands above or below them. The source made the active and inactive calls. The rule behind the calls is not given here.
Experiments:
[1] = Oral bioavailability in Sprague-Dawley rat by LC-MS/MS analysis; type: ADME, organism-based; settings: in vivo
Calu-6 [2] = assay: Antitumor activity against human Calu-6 cells xenografted in nude mouse assessed as tumor growth inhibition at 5 to 30 mg/kg,IT BID for 14 days relative to control; type: functional, organism-based; settings: dose 5-30 mg/kg, time 14.0 day
[3] = Half life in C57 mouse at 1 mg/kg, iv; type: ADME, organism-based; settings: in vivo
[4] = AUC (0 to t) in Sprague-Dawley rat plasma at 2 mg/kg, IG by LC-MS/MS analysis; type: ADME, organism-based; design: dose 2 mg/kg; settings: po
[5] = Half life in Sprague-Dawley rat plasma at 1 mg/kg, iv by LC-MS/MS analysis; type: ADME, organism-based; settings: Sprague-Dawley, plasma
SK-MEL-2 = assay: Cytotoxicity against human SK-MEL-2 cells assessed as inhibition of growth measured after 72 hrs by CellTiter-Glo luciferase assay; type: functional
[6] = biological target: T1, Eukaryotic translation initiation factor 2-alpha kinase 3 (Homo sapiens) (UniProt Q9NZJ5); assay: Inhibition of human His-tagged PERK by TR-FRET assay
T1 sequence (whole entry): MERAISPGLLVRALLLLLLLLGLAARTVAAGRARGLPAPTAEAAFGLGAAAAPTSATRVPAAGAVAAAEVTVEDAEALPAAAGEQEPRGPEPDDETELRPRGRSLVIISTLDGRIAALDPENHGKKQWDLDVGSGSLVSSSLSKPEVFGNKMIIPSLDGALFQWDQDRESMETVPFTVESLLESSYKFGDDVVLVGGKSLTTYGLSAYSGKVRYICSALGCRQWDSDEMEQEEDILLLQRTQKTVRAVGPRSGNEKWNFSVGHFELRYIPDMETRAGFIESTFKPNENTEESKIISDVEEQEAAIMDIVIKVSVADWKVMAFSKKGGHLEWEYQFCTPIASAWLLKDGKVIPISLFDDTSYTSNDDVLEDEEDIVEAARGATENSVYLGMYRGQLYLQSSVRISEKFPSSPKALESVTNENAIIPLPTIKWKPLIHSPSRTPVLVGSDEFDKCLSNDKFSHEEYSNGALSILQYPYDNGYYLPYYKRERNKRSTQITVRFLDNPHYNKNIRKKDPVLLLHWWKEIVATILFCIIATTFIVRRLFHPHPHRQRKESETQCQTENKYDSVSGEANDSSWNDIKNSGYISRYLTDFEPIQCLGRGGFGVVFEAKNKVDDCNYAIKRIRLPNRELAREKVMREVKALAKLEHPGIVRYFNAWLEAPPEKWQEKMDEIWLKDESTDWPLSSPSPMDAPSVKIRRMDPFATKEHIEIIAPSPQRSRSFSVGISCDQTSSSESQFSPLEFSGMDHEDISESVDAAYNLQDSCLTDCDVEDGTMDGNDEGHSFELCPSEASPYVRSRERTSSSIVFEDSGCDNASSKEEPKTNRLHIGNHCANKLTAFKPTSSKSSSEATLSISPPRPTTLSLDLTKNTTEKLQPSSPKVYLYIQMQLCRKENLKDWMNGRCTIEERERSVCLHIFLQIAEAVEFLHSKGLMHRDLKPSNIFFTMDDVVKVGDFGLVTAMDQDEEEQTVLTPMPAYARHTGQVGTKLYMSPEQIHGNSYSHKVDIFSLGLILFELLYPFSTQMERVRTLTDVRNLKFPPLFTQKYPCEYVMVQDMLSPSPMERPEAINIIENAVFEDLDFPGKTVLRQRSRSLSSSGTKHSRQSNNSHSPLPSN

[7] = Fraction unbound in rat plasma; type: ADME, cell-free
[8] = Fraction unbound in human plasma; type: ADME, cell-free
[9] = Fraction unbound in mouse plasma; type: ADME, cell-free
[10] = biological target: RAF proto-oncogene serine/threonine-protein kinase (Homo sapiens, UniProt P04049); assay: Inhibition of human recombinant cRAF measured after 60 mins by TR-FRET assay
Chain of RAF proto-oncogene serine/threonine-protein kinase (P04049 whole entry): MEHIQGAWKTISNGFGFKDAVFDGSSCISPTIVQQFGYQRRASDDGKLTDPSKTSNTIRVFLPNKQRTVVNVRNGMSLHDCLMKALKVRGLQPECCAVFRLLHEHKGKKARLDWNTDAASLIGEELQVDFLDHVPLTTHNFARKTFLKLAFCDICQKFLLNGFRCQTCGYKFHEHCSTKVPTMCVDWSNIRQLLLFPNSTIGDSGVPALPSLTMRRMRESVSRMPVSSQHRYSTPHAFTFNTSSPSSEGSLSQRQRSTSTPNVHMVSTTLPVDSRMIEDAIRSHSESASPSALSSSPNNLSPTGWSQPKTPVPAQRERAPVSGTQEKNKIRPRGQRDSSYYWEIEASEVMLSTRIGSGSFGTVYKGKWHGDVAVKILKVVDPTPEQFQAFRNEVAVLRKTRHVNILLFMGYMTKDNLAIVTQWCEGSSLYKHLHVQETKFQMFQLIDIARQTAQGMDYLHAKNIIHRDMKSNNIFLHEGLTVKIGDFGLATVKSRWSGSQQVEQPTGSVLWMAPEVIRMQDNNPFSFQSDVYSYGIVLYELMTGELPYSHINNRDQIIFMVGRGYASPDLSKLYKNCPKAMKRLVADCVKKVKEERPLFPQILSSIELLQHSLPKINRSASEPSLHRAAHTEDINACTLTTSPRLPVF

[11] = Metabolic stability in mouse liver microsomes assessed as half life; type: ADME, Microsome
[12] = Cmax in Sprague-Dawley rat plasma at 2 mg/kg, IG by LC-MS/MS analysis; type: ADME, organism-based; design: route […], dose 2 mg/kg; settings: po
[13] = biological target: Serine/threonine-protein kinase B-raf (Homo sapiens, UniProt P15056); assay: Inhibition of human recombinant wild type BRAF measured after 60 mins by TR-FRET assay
Chain of Serine/threonine-protein kinase B-raf (Homo sapiens, UniProt P15056) (P15056 whole entry): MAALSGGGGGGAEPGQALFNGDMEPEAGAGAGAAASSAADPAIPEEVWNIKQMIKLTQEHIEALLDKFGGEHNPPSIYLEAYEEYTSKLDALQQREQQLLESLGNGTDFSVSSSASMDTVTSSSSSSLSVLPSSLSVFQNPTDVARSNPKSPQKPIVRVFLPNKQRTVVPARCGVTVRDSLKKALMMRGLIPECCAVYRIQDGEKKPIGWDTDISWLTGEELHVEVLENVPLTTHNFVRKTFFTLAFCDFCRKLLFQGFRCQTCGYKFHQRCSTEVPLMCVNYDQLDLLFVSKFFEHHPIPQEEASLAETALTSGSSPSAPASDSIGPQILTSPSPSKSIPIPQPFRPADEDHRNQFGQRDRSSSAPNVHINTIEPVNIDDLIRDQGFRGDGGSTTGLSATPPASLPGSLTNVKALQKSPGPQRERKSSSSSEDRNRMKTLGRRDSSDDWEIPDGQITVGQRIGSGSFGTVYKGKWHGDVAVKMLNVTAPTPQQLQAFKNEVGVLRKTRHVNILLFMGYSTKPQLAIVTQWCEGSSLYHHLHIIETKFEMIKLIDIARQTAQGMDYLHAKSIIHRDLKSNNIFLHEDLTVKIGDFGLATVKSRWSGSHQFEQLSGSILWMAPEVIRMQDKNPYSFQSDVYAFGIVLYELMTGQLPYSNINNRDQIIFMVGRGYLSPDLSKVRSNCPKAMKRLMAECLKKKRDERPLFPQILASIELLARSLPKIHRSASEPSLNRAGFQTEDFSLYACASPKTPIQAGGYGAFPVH

[14] = Clearance in C57 mouse at 1 mg/kg, iv; type: ADME, organism-based; settings: in vivo
[15] = Oral bioavailability in C57 mouse; type: ADME, organism-based; settings: in vivo
NCI-H358 = assay: Cytotoxicity against human NCI-H358 cells assessed as inhibition of growth measured after 72 hrs by CellTiter-Glo luciferase assay; type: functional
[16] = biological target: Serine/threonine-protein kinase B-raf (Homo sapiens, UniProt P15056, V600E); assay: Inhibition of human recombinant BRAF V600E mutant measured after 60 mins by TR-FRET assay
Chain of Serine/threonine-protein kinase B-raf (Homo sapiens, UniProt P15056, V600E) (P15056 2-766 V600E limits assumed): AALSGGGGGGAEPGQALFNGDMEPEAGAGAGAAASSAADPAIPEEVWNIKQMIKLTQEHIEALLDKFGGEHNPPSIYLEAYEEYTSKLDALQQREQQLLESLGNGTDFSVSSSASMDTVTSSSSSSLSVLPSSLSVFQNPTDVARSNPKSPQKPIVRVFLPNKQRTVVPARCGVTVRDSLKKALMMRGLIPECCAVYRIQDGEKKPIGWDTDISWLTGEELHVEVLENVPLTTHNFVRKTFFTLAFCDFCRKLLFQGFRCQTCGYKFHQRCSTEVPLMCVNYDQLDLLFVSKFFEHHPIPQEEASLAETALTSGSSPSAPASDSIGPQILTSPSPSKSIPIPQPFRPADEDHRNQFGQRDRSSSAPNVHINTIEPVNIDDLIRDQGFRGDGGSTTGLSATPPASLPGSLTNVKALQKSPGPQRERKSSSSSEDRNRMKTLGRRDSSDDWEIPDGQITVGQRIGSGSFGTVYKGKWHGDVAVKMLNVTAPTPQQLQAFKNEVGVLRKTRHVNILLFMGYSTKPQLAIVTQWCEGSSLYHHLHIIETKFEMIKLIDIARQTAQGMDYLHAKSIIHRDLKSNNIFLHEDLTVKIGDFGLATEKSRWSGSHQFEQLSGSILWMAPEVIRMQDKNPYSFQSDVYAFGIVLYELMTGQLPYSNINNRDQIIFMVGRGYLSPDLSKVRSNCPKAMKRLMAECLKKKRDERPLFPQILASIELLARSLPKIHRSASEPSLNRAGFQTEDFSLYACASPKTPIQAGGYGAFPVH

[17] = Metabolic stability in rat liver microsomes assessed as half life; type: ADME, Microsome
[18] = Cmax in C57 mouse at 2 mg/kg, IG; type: ADME, organism-based; design: route […], dose 2 mg/kg; settings: in vivo, po
[19] = AUC (0 to t) in Sprague-Dawley rat plasma at 20 mg/kg, IG by LC-MS/MS analysis; type: ADME, organism-based; design: dose 20 mg/kg; settings: po
[20] = Clearance in Sprague-Dawley rat plasma at 1 mg/kg, iv by LC-MS/MS analysis; type: ADME, organism-based
A-375 = assay: Cytotoxicity against human A-375 cells assessed as inhibition of growth measured after 72 hrs by CellTiter-Glo luciferase assay; type: functional
[21] = AUC (0 to t) in C57 mouse at 2 mg/kg, IG; type: ADME, organism-based; design: dose 2 mg/kg; settings: in vivo, po
Calu-6 [22] = assay: Cytotoxicity against human Calu-6 cells assessed as inhibition of growth measured after 72 hrs by CellTiter-Glo luciferase assay; type: functional
[23] = Cmax in Sprague-Dawley rat plasma at 20 mg/kg, IG by LC-MS/MS analysis; type: ADME, organism-based; design: route […], dose 20 mg/kg; settings: po
[24] = Toxicity in nude mouse assessed as reduction in body weight measured at 5 to 30 mg/kg,IT BID for 14 days; type: organism-based; settings: in vivo, other, 336 h, dose 5-30 mg/kg, time 14 day
[25] = Metabolic stability in human liver microsomes assessed as half life; type: ADME, Microsome
[26] = Cmax in Sprague-Dawley rat assessed as parent compound at 24 mg/kg, IG by LC-MS/MS analysis; type: ADME, organism-based, Plasma; design: route […], dose 24 mg/kg; settings: in vivo, po
[27] = Cmax in Sprague-Dawley rat plasma assessed as parent compound at 121 mg/kg, IG by LC-MS/MS analysis; type: ADME, organism-based; design: route […], dose 121 mg/kg; settings: in vivo, po
[28] = AUC (0-t) in Sprague-Dawley rat plasma assessed as parent compound at 121 mg/kg, IG by LC-MS/MS analysis; type: ADME, organism-based; design: dose 121 mg/kg; settings: in vivo, po
[29] = biological target: Voltage-gated inwardly rectifying potassium channel KCNH2 (Homo sapiens, UniProt Q12809)
[30] = Solubility of the compound at pH 7.4; settings: buffer
Cytochrome P450 2C9 = Cytochrome P450 2C9 (Homo sapiens, UniProt P11712); assay: Inhibition of CYP2C9 (unknown origin)
Cytochrome P450 2D6 = Cytochrome P450 2D6 (Homo sapiens, UniProt P10635); assay: Inhibition of CYP2D6 (unknown origin)
Chain of Cytochrome P450 2D6 (P10635 whole entry): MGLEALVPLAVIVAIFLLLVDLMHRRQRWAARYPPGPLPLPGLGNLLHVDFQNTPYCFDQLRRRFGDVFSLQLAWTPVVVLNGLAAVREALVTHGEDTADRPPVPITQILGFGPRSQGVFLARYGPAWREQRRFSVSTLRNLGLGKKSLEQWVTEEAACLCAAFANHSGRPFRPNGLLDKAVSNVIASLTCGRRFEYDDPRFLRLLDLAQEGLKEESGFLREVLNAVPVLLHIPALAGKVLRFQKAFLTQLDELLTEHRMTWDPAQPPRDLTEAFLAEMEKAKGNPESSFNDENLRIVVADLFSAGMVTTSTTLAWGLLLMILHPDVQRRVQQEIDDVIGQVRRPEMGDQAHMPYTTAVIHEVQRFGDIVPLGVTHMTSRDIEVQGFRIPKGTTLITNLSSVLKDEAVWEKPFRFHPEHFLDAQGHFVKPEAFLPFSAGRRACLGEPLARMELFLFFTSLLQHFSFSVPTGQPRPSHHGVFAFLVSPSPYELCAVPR

Cytochrome P450 3A4 [31] = biological target: T2, Cytochrome P450 3A4 (Homo sapiens, UniProt P08684); assay: Inhibition of CYP3A4 (unknown origin) using midazolam as substrate
T2 sequence (P08684 whole entry): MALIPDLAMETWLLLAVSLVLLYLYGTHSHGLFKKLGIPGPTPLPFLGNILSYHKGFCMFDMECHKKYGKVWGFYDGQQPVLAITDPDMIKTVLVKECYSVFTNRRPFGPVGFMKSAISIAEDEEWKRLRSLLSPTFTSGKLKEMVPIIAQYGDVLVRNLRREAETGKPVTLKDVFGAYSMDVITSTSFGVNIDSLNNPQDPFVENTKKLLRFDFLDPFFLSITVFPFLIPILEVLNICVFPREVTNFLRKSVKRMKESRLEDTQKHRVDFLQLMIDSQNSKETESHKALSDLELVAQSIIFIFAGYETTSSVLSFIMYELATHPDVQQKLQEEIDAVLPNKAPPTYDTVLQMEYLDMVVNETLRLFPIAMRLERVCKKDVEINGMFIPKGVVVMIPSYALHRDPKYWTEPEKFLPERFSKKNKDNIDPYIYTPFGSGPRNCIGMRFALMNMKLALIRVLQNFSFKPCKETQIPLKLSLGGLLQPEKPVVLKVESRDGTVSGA

Calu-6 [32] = assay: Antitumor activity against human Calu-6 cells xenografted in nude mouse assessed as tumor growth inhibition at 30 mg/kg,IT QD for 12 days relative to control; type: functional; settings: Calu-6, 288 h, time 12 day, read-out: TGI
[33] = Apparent permeability across basolateral to apical membrane in human Caco-2 cells
[34] = Apparent permeability across apical to basolateral membrane in human Caco-2 cells
P-gp (ABCB1) = P-gp (ABCB1) (Homo sapiens, UniProt P08183); assay: Substrate activity at P-gp in human Caco-2 cells assessed as efflux ratio of permeability
Chain of P-gp (ABCB1) (P08183 whole entry): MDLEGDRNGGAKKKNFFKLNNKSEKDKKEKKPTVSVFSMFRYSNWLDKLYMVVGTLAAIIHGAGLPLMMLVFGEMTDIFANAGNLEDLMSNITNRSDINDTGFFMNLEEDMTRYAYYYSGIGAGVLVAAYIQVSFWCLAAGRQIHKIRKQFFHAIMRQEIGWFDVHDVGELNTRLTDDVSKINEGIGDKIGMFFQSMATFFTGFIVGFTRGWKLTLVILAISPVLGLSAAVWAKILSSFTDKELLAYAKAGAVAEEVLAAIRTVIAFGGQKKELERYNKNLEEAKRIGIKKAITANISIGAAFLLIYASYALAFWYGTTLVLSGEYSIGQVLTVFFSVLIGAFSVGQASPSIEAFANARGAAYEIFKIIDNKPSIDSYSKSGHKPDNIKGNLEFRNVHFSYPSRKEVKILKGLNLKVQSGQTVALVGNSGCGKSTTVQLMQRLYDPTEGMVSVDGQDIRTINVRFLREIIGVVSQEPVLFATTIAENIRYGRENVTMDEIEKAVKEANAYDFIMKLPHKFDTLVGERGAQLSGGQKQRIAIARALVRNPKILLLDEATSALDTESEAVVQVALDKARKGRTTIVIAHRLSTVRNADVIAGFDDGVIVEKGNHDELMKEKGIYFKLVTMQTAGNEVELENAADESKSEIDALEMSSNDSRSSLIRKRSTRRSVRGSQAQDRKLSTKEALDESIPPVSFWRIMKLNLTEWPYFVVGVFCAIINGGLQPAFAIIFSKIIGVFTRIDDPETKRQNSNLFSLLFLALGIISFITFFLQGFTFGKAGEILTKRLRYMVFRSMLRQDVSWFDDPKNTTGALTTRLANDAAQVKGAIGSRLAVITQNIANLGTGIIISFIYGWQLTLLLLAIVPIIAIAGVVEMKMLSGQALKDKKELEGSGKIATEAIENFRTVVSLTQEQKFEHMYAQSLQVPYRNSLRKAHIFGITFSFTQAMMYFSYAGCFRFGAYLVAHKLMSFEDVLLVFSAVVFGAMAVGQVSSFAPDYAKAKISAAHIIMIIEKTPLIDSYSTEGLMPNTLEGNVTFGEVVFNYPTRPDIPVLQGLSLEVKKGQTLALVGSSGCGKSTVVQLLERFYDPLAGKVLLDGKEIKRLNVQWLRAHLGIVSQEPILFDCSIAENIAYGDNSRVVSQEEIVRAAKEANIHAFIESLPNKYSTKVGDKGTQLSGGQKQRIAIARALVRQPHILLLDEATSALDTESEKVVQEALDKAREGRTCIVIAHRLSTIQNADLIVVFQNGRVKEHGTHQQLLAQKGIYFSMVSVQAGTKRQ

Cytochrome P450 3A4 [35] = biological target: T2, Cytochrome P450 3A4; assay: Inhibition of CYP3A4 (unknown origin) using testosterone as substrate
Cytochrome P450 1A2 = biological target: T3, Cytochrome P450 1A2 (Homo sapiens, UniProt P05177); assay: Inhibition of CYP1A2 (unknown origin)
T3 sequence (P05177 whole entry): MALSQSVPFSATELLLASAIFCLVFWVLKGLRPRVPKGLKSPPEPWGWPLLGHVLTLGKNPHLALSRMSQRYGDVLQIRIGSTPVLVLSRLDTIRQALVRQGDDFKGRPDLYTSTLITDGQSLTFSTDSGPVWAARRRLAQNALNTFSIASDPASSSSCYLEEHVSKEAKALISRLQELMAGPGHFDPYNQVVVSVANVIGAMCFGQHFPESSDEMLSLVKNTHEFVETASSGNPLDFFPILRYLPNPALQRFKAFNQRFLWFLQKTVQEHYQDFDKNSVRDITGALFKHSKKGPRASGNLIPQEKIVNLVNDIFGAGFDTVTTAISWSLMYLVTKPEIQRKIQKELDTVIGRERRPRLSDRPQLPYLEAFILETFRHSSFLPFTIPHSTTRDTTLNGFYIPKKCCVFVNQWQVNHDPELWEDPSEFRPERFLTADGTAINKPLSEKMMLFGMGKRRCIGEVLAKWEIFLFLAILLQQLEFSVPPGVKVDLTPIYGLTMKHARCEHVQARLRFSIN

Cytochrome P450 2C19 = Cytochrome P450 2C19 (Homo sapiens, UniProt P33261); assay: Inhibition of CYP2C19 (unknown origin)
Chain of Cytochrome P450 2C19 (P33261 whole entry): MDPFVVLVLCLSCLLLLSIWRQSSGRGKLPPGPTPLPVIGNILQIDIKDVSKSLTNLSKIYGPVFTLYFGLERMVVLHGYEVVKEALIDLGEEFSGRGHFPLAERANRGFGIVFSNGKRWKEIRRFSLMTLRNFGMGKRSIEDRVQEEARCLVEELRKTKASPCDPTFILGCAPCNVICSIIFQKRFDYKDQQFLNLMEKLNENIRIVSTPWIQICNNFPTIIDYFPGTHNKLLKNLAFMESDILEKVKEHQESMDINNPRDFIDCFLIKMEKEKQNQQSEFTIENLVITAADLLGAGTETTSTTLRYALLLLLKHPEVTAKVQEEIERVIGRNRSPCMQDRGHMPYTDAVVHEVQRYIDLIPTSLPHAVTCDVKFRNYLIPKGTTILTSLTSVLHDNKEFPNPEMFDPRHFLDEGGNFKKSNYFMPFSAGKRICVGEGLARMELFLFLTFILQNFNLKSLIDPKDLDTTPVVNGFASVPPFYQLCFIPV

bioavailability ([1]; Sprague-Dawley): 101% | half-life [3]: 216 min | AUC(0-t) ([4]; Sprague-Dawley, plasma): 4700 ng·h/mL | half-life [5]: 96 min | inhibition [6]: Active | fraction unbound [7]: 0.06 | fraction unbound [8]: 0.006 | fraction unbound [9]: 0.018 | IC50 [10]: 1.6 nM | half-life [11]: > 139 min | Cmax [12]: 956 ng/mL | IC50 [13]: 10 nM | clearance [14]: 6.8 mL/min/kg | bioavailability [15]: 112% | IC50 [16]: 5.7 nM | half-life [17]: 74.2 min | Cmax [18]: 953 ng/mL | AUC(0-t) [19]: 21800 ng·h/mL | clearance [20]: 7.2 mL/min/kg | AUC(0-t) [21]: 5410 ng·h/mL | Cmax [23]: 2810 ng/mL | half-life [25]: 106 min
Structure (SMILES): Cc1ccc(NC(=O)c2cc(C(F)(F)F)cnn2)cc1-c1ccc2c(c1)OC1(CCOCC1)CC(=O)N2
TGI (Calu-6 [2]): Dose-Dependent Effect | GI50 (SK-MEL-2): 320 nM | GI50 (NCI-H358): 1400 nM | GI50 (A-375): 170 nM | GI50 (Calu-6 [22]): 400 nM | Activity [24]: Non-Toxic

Cmax [26]: 2848 ng/mL | Cmax [27]: 10740 ng/mL | AUCt [28]: 132.78 µg·h/mL
Structure (SMILES): Cc1ccc(NC(=O)c2cc(C(F)(F)F)cnn2)cc1-c1ccc2c(c1)OC1(CCOCC1)CC(=O)N2COP(=O)(O)O

F [1]: 18.7% | AUCt ([4]; in vivo): 3.12 ng·h/mL | fraction unbound [7]: 0.009 | fraction unbound [8]: 0.004 | solubility [30]: 0.9 µM (≈ 0.46 µg/mL) | fraction unbound [9]: 0.012 | IC50 (Cytochrome P450 2C9): 10.3 µM | IC50 (Cytochrome P450 2D6): > 30 µM | IC50 [10]: 5.1 nM | half-life [11]: > 139 min | Cmax [12]: 47.3 ng/mL | IC50 (Cytochrome P450 3A4 [31]): > 30 µM | IC50 [13]: 12 nM | Papp B→A [33]: 39.8 ×10⁻⁶ cm/s | Papp A→B [34]: 15.7 ×10⁻⁶ cm/s | efflux ratio (P-gp (ABCB1)): 2.53 | IC50 [16]: 11 nM | IC50 (Cytochrome P450 3A4 [35]): 13.2 µM | half-life [17]: 44.9 min | IC50 (Cytochrome P450 1A2): > 30 µM | IC50 (Cytochrome P450 2C19): > 30 µM | half-life [25]: 139 min
Structure (SMILES): Cc1ccc(NC(=O)c2ccnc(C(F)(F)F)c2)cc1-c1ccc2c(c1)OC1(CCOCC1)CC(=O)N2
IC50 [29]: 3 µM | GI50 (SK-MEL-2): 230 nM | inhibition in vivo at 30 mg/kg (Calu-6 [32]): 41% | GI50 (NCI-H358): 1700 nM | GI50 (A-375): 150 nM | GI50 (Calu-6 [22]): 350 nM
